Source: patent US20250051344A1, “BIFUNCTIONAL SELECTIVE DEGRADERS OF SMARCA2 AND THERAPEUTIC USES THEREOF” (Nurix Therapeutics, Inc., priority 2023, published 2025)

Legend:
SMARCA4 = target: T1, SMARCA4 (Homo sapiens, UniProt P51532); test: Cellular degradation assay, SMARCA4 (Table 1); assay type: cell-based
T1 construct: endogenous in cells

SMARCA2 = target: T2, SMARCA2 (Homo sapiens, UniProt P51531); test: SMARCA2 Cellular Degradation Assay (Western blot analysis on Jess platform); assay type: cell-based; settings: for DC50 / Dmax: cellular degradation; for Fold Selectivity SMARCA4/2: ratio DC50 SMARCA4 / DC50 SMARCA2
T2 construct: endogenous in cells
T2 sequence (P51531 whole entry, species assumed): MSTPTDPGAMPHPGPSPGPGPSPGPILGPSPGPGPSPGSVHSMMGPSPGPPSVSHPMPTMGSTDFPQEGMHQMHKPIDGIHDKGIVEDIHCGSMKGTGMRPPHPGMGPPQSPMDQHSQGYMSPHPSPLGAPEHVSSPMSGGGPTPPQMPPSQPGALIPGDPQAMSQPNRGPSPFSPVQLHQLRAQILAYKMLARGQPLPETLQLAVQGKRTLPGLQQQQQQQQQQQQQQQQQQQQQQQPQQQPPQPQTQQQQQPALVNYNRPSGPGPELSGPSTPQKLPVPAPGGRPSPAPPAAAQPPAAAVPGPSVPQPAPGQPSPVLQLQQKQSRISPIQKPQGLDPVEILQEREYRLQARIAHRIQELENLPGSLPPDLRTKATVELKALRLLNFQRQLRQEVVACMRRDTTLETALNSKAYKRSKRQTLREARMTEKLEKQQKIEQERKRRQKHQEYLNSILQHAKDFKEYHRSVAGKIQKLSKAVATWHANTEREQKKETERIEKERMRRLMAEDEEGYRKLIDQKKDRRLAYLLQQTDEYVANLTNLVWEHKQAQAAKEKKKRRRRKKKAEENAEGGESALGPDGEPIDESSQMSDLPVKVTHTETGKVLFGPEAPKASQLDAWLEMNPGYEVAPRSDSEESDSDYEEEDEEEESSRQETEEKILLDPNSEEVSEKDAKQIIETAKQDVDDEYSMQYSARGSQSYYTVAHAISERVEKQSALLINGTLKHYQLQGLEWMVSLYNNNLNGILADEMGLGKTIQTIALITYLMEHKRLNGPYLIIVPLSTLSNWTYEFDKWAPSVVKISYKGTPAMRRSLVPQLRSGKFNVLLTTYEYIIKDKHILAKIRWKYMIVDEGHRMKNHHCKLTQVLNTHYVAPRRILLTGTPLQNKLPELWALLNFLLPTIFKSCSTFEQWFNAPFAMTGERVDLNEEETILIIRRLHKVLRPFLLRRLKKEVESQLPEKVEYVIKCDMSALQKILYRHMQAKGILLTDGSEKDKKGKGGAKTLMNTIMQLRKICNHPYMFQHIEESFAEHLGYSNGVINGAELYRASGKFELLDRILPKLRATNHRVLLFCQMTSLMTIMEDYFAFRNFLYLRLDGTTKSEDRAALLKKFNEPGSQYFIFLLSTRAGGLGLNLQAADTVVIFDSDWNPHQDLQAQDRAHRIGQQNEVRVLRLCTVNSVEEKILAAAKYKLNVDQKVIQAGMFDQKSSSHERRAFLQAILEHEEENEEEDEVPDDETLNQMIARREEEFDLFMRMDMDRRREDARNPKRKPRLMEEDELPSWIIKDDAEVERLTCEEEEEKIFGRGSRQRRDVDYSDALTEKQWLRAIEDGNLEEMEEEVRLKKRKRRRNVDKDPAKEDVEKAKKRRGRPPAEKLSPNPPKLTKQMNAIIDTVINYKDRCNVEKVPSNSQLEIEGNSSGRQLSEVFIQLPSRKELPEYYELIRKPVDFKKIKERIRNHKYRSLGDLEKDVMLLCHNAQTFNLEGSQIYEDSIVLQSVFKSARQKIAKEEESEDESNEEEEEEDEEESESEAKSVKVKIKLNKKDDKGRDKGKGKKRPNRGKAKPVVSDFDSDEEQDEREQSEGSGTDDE
In short: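 Readout: Jess Simple Western of tumor-extracted cell lysates, SMARCA2 area over actin area after background subtraction, shown as percentage of vehicle control.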

T1 sequence (P51532 whole entry, species assumed): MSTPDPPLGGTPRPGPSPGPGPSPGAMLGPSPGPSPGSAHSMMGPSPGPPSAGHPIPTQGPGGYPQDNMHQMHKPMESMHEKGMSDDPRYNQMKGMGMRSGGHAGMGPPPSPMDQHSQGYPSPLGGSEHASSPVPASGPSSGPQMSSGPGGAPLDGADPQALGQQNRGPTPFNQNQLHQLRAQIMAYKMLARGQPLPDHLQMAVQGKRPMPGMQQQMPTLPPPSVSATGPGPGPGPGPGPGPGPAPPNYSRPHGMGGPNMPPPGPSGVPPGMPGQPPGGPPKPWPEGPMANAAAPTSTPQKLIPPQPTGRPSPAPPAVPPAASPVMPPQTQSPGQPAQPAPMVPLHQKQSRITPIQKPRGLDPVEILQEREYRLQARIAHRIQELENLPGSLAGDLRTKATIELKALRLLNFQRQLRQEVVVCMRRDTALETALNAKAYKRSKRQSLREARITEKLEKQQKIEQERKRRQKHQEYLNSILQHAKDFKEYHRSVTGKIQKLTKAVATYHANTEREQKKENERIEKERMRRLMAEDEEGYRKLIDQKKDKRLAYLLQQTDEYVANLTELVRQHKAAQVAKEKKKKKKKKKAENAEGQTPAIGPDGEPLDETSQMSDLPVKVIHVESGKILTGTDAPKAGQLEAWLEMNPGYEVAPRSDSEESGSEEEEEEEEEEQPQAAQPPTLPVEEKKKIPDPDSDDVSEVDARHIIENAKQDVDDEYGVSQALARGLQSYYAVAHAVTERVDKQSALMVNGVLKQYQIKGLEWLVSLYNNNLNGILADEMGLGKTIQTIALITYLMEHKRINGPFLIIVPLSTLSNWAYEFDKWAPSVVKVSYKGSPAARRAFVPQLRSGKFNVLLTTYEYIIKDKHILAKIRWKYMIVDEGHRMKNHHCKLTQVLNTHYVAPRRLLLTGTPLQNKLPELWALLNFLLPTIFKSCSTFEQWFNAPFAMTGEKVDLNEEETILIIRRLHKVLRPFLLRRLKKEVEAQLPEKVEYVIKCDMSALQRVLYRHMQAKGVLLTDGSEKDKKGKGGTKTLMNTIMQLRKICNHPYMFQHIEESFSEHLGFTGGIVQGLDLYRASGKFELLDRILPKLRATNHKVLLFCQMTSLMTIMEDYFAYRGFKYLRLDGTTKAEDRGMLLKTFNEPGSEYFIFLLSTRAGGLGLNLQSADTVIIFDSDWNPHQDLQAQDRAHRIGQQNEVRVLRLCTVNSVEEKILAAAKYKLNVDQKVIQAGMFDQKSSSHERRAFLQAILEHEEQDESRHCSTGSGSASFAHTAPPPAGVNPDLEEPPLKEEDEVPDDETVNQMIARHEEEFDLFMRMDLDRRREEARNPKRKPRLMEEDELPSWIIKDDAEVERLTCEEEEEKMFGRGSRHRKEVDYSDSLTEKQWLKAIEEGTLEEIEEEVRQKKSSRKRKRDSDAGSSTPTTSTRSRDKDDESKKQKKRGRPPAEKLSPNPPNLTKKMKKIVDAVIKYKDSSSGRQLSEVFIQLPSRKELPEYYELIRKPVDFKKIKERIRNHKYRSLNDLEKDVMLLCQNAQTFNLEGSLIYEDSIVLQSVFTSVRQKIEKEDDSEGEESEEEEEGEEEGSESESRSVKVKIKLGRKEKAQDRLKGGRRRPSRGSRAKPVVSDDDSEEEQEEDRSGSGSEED

CN(CC1(c2ccccc2)CCN(c2cnnc(-c3ccccc3O)c2)CC1)C1CCN(C(=O)CN2CCC(c3ccc(C4CCC(=O)NC4=O)cc3)CC2)CC1 (racemic) [Example 143, rac-(r)-3-(4-(1-(2-(4-(((1-(6-(2-hydroxyphenyl)pyridazin-4-yl)-4-phenylpiperidin-4-yl)methyl)(methyl)amino)piperidin-1-yl)-2-oxoethyl)piperidin-4-yl)phenyl)piperidine-2,6-dione]
DC50 (SMARCA4): 161 nM
Dmax (SMARCA4): 66.7%
DC50 (SMARCA2): 13.3 nM
Dmax (SMARCA2): 86.5%
Fold Selectivity SMARCA4/2 (SMARCA2): 12

O=C1CC[C@H](c2ccc(N3CCC(CCN4CC5CCC(C4)C5C(=O)NCC4(c5ccccc5)CCN(c5cnnc(-c6ccccc6O)c5)CC4)CC3)cc2)C(=O)N1 (mixture of isomers) [Example 144, rac-3-(2-(1-(4-((r)-2,6-dioxopiperidin-3-yl)phenyl)piperidin-4-yl)ethyl)-n-((1-(6-(2-hydroxyphenyl)pyridazin-4-yl)-4-phenylpiperidin-4-yl)methyl)-3-azabicyclo[3.2.1]octane-8-carboxamide]
DC50 (SMARCA4): 13.4 nM
Dmax (SMARCA4): 80.7%
DC50 (SMARCA2): 1.36 nM
Dmax (SMARCA2): 93.7%
Fold Selectivity SMARCA4/2 (SMARCA2): 10

COCCN(CC1(c2ccccc2)CCN(c2cnnc(-c3ccccc3O)c2)CC1)C(=O)C1CCN(CCC2CCN(c3ccc([C@@H]4CCC(=O)NC4=O)cc3)CC2)CC1 (racemic) [Example 145, rac-(r)-1-(2-(1-(4-(2,6-dioxopiperidin-3-yl)phenyl)piperidin-4-yl)ethyl)-n-((1-(6-(2-hydroxyphenyl)pyridazin-4-yl)-4-phenylpiperidin-4-yl)methyl)-n-(2-methoxyethyl)piperidine-4-carboxamide]
DC50 (SMARCA4): 9.67 nM
Dmax (SMARCA4): 84.5%
DC50 (SMARCA2): 1.69 nM
Dmax (SMARCA2): 92.8%
Fold Selectivity SMARCA4/2 (SMARCA2): 6

CN(CC1(c2ccccc2)CCN(c2cnnc(-c3ccccc3O)c2)CC1)C(=O)C1CCN(CCC2CCN(c3ccc([C@H]4CCC(=O)NC4=O)cc3)CC2)C2(CCC2)C1 (mixture of isomers) [Example 146, rac-5-(2-(1-(4-((r)-2,6-dioxopiperidin-3-yl)phenyl)piperidin-4-yl)ethyl)-n-((1-(6-(2-hydroxyphenyl)pyridazin-4-yl)-4-phenylpiperidin-4-yl)methyl)-n-methyl-5-azaspiro[3.5]nonane-8-carboxamide]
DC50 (SMARCA4): 21.9 nM
Dmax (SMARCA4): 72.8%
DC50 (SMARCA2): 5.57 nM
Dmax (SMARCA2): 83%
Fold Selectivity SMARCA4/2 (SMARCA2): 4

CC(N[C@H]1CC[C@@H](NC(=O)C2(c3ccccc3)CCN(c3cnnc(-c4ccccc4O)c3)CC2)CC1)C1CCN(c2ccc([C@H]3CCC(=O)NC3=O)cn2)CC1 (mixture of isomers) [Example 147, 1-[6-(2-hydroxyphenyl)pyridazin-4-yl]-4-phenyl-N-[(1,4s)-4-{[1-(1-{5-[(3rs)-2,6-dioxopiperidin-3-yl]pyridin-2-yl}piperidin-4-yl)ethyl]amino}cyclohexyl]piperidine-4-carboxamide]
DC50 (SMARCA4): 47.3 nM
Dmax (SMARCA4): 64.5%
DC50 (SMARCA2): 13.7 nM
Dmax (SMARCA2): 76.8%
Fold Selectivity SMARCA4/2 (SMARCA2): 3

O=C1CCC(c2ccc(N3C[C@H]4CN(CC(=O)N5CCC6(CC5)CN(C(=O)C5(c7ccccc7)CCN(c7cnnc(-c8ccccc8O)c7)CC5)C6)C[C@@H]4C3)cc2)C(=O)N1 (mixture of isomers) [Example 150, (3RS)-3-{4-[(3aR,6aR)-5-[2-(2-{1-[6-(2-hydroxyphenyl)pyridazin-4-yl]-4-phenylpiperidine-4-carbonyl}-2,7-diazaspiro[3.5]nonan-7-yl)-2-oxoethyl]-octahydropyrrolo[3,4-c]pyrrol-2-yl]phenyl}piperidine-2,6-dione]
Dmax (SMARCA4): 50.6%
DC50 (SMARCA2): 22.6 nM
Dmax (SMARCA2): 73.9%
Fold Selectivity SMARCA4/2 (SMARCA2): 442

CN(C(=O)C1(c2ccccc2)CCN(c2cnnc(-c3ccccc3O)c2)CC1)C1CCN(CCC2CCN(c3ccc(C4CCC(=O)NC4=O)c(F)c3)CC2)CC1 (racemic) [Example 151, rac-N-{1-[2-(1-{4-[(3R)-2,6-dioxopiperidin-3-yl]-3-fluorophenyl}piperidin-4-yl)ethyl]piperidin-4-yl}-1-[6-(2-hydroxyphenyl)pyridazin-4-yl]-N-methyl-4-phenylpiperidine-4-carboxamide]
DC50 (SMARCA4): 157 nM
Dmax (SMARCA4): 59.6%
DC50 (SMARCA2): 3.57 nM
Dmax (SMARCA2): 92.3%
Fold Selectivity SMARCA4/2 (SMARCA2): 44

O=C1CCC(c2ccc(N3CCOC4(CCN(CC(=O)N5CCC6(CC5)CN(C(=O)C5(c7ccccc7)CCN(c7cnnc(-c8ccccc8O)c7)CC5)C6)CC4)C3)cc2)C(=O)N1 (racemic) [Example 152, rac-(3R)-3-(4-{9-[2-(2-{1-[6-(2-hydroxyphenyl)pyridazin-4-yl]-4-phenylpiperidine-4-carbonyl}-2,7-diazaspiro[3.5]nonan-7-yl)-2-oxoethyl]-1-oxa-4,9-diazaspiro[5.5]undecan-4-yl}phenyl)piperidine-2,6-dione]
Dmax (SMARCA4): 45.4%
DC50 (SMARCA2): 68.2 nM
Dmax (SMARCA2): 66.5%
Fold Selectivity SMARCA4/2 (SMARCA2): 147

CN(C(=O)C1(c2ccccc2)CCN(c2cnnc(-c3ccccc3O)c2)CC1)C1CCN(CC2CCN(c3ccc([C@H]4CCC(=O)NC4=O)cc3)CC2)C2(CCCCC2)C1 (mixture of isomers) [Example 153, N-[(4RS)-1-[(1-{4-[(3R)-2,6-dioxopiperidin-3-yl]phenyl}piperidin-4-yl)methyl]-1-azaspiro[5.5]undecan-4-yl]-1-[6-(2-hydroxyphenyl)pyridazin-4-yl]-N-methyl-4-phenylpiperidine-4-carboxamide]
DC50 (SMARCA4): 47.5 nM
Dmax (SMARCA4): 86.2%
DC50 (SMARCA2): 10.3 nM
Dmax (SMARCA2): 92.2%
Fold Selectivity SMARCA4/2 (SMARCA2): 5

Cn1c(=O)n(C2CCC(=O)NC2=O)c2ccc(N3CCC(CN4CCC(NC(=O)C5(c6ccccc6)CCN(c6cnnc(-c7ccccc7O)c6)CC5)CC4)CC3)cc21 (racemic) [Example 158, rac-N-{1-[(1-{1-[(3R)-2,6-dioxopiperidin-3-yl]-3-methyl-2-oxo-2,3-dihydro-1H-1,3-benzodiazol-5-yl}piperidin-4-yl)methyl]piperidin-4-yl}-1-[6-(2-hydroxyphenyl)pyridazin-4-yl]-4-phenylpiperidine-4-carboxamide]
DC50 (SMARCA4): 1.36 nM
Dmax (SMARCA4): 88.5%
DC50 (SMARCA2): 0.44 nM
Dmax (SMARCA2): 92%
Fold Selectivity SMARCA4/2 (SMARCA2): 3

Cn1c(=O)n(C2CCC(=O)NC2=O)c2ccc(N3CCC(CN4CCC5(CC4)CN(C(=O)C4(c6ccccc6)CCN(c6cnnc(-c7ccccc7O)c6)CC4)C5)CC3)cc21 (racemic) [Example 159, rac-(3R)-3-(5-{4-[(2-{1-[6-(2-hydroxyphenyl)pyridazin-4-yl]-4-phenylpiperidine-4-carbonyl}-2,7-diazaspiro[3.5]nonan-7-yl)methyl]piperidin-1-yl}-3-methyl-2-oxo-2,3-dihydro-1H-1,3-benzodiazol-1-yl)piperidine-2,6-dione]
DC50 (SMARCA4): 1.45 nM
Dmax (SMARCA4): 82.2%
DC50 (SMARCA2): 0.38 nM
Dmax (SMARCA2): 89.5%
Fold Selectivity SMARCA4/2 (SMARCA2): 4

O=C1CCC(c2ccc(N3C[C@@H]4CN(CC5CCN(C(=O)C6(c7ccccc7)CCN(c7cnnc(-c8ccccc8O)c7)CC6)CC5)C[C@H]4C3)cc2)C(=O)N1 (mixture of isomers) [Example 160, (3RS)-3-{4-[(3aS,6aS)-5-[(1-{1-[6-(2-hydroxyphenyl)pyridazin-4-yl]-4-phenylpiperidine-4-carbonyl}piperidin-4-yl)methyl]-octahydropyrrolo[3,4-c]pyrrol-2-yl]phenyl}piperidine-2,6-dione]
DC50 (SMARCA4): 104 nM
Dmax (SMARCA4): 71.4%
DC50 (SMARCA2): 12 nM
Dmax (SMARCA2): 87.7%
Fold Selectivity SMARCA4/2 (SMARCA2): 9

O=C1CCC(c2ccc(N3CCC4(CCN(CC5CCN(C(=O)C6(c7ccccc7)CCN(c7cnnc(-c8ccccc8O)c7)CC6)CC5)C4)CC3)cc2)C(=O)N1 (racemic) [Example 163, rac-(3R)-3-(4-{2-[(1-{1-[6-(2-hydroxyphenyl)pyridazin-4-yl]-4-phenylpiperidine-4-carbonyl}piperidin-4-yl)methyl]-2,8-diazaspiro[4.5]decan-8-yl}phenyl)piperidine-2,6-dione]
Dmax (SMARCA4): 49.3%
DC50 (SMARCA2): 40.8 nM
Dmax (SMARCA2): 62%
Fold Selectivity SMARCA4/2 (SMARCA2): 245

O=C1CC[C@@H](c2ccc(N3CCN(CC4=NO[C@@H]5CN(C(=O)C6(c7ccccc7)CCN(c7cnnc(-c8ccccc8O)c7)CC6)C[C@H]45)CC3)cc2)C(=O)N1 (racemic) [Example 165, (3RS&)-3-[4-(4-{[(3aRS,6aSR)-5-{1-[6-(2-hydroxyphenyl)pyridazin-4-yl]-4-phenylpiperidine-4-carbonyl}-3aH,4H,5H,6H,6aH-pyrrolo[3,4-d][1,2]oxazol-3-yl]methyl}piperazin-1-yl)phenyl]piperidine-2,6-dione]
DC50 (SMARCA4): 1000 nM
Dmax (SMARCA4): 34%
DC50 (SMARCA2): 45.8 nM
Dmax (SMARCA2): 58%
Fold Selectivity SMARCA4/2 (SMARCA2): 22

O=C1CC[C@@H](c2ccc(O[C@H]3CC[C@H](CN4CC5(C4)CN(C(=O)C4(c6ccccc6)CCN(c6cnnc(-c7ccccc7O)c6)CC4)C5)CC3)cc2)C(=O)N1 (racemic) [Example 166, (3RS)-3-(4-{[(1r,4r)-4-[(6-{1-[6-(2-hydroxyphenyl)pyridazin-4-yl]-4-phenylpiperidine-4-carbonyl}-2,6-diazaspiro[3.3]heptan-2-yl)methyl]cyclohexyl]oxy}phenyl)piperidine-2,6-dione]
DC50 (SMARCA4): 317 nM
Dmax (SMARCA4): 35.2%
DC50 (SMARCA2): 24.2 nM
Dmax (SMARCA2): 65.8%
Fold Selectivity SMARCA4/2 (SMARCA2): 13

O=C1CCC(c2ccc(N3CCC(CCN4CC5(CCCN(C(=O)C6(c7ccccc7)CCN(c7cnnc(-c8ccccc8O)c7)CC6)C5)C4)CC3)cc2)C(=O)N1 (racemic) [Example 167, rac-(3R)-3-(4-{4-[2-(6-{1-[6-(2-hydroxyphenyl)pyridazin-4-yl]-4-phenylpiperidine-4-carbonyl}-2,6-diazaspiro[3.5]nonan-2-yl)ethyl]piperidin-1-yl}phenyl)piperidine-2,6-dione]
DC50 (SMARCA4): 659 nM
Dmax (SMARCA4): 23.7%
DC50 (SMARCA2): 40.1 nM
Dmax (SMARCA2): 67.5%
Fold Selectivity SMARCA4/2 (SMARCA2): 16
